Reference: patent publication US9925274B2, “Delphinidin complex as an antiphlogistic or immunosuppressive active ingredient” (priority 2012, dated 2018)
“Also recorded” adds a separate entry of the source. Like-named read-outs stand apart in the source and are kept apart here.

Experiments:
[1] = Solubility of delphinidin chloride in aqueous cyclodextrin solutions (Example 1); settings: neutral aqueous solution with 10% by weight cyclodextrin (β-CD 2%) or pure water; excess delphinidin chloride; stirred in the dark at 30° C. for 20 h; 0.22 μm filtration
[2] = tested on: Cc17 [chemokine (C—C motif) ligand 7] mRNA expression in cEND cells; settings: for Effect on the TNFα-induced rise in Cc17 mRNA expression: TNFα 24 h
[3] = tested on: tight junction protein claudin-5 mRNA expression in cEND cells; assay: claudin-5 mRNA expression in cEND cells with or without TNFα (Example 10); type: cell-based, murine
Source text: The surrogate marker used for the tightness of the barrier was the expression of the tight junction protein claudin-5 (Forster C. Tight junctions and the modulation of barrier function in disease. Histochem Cell Biol. 2008; 130: 55-70) and the procedure carried out was analogous to example 8.

NFKB = assay: Concentration of NFKB in the nucleus of monocytes after stimulation with LPS and/or delphinidin (immunofluorescence nuclear staining; Examples 6-8); type: cell-based; design: Inhibitory effect on the cell immune response compared to hydrocortisone: dose or concentration left out as unconfirmed
Description: For healthy test subjects, the concentration of NFKB in the nucleus of monocytes after stimulation with LPS and/or delphinidin was assayed by means of immunofluorescence nuclear staining for NFKB and expressed in relation to nonstimulated cells. NFKB is activated by various stimuli, especially inflammatory and stress-associated stimuli.
The following procedure was carried out and shown in FIG. 1 from left to right, with the stimulation/incubation of the cells (1 ml in each case of RPMI-1640 comprising 1 million cells in the exponential growth phase) taking place at 37° C. in a well of a 24-well polystyrene cell culture dish and the specified concentrations being final concentrations: • “1.5 h 10 μg LPS”—Stimulation of the cells for 1.5 h with 10 μg/ml LPS (control) • “24 h prestim. 5 μM Del-Cl; 1.5 h 10 μg LPS”—24 h prestimulation of the cells with 5 μM delphinidin chloride (dissolved in RPMI-1640 cell medium) and then 1.5 h stimulation with 10 μg/ml LPS • “1.5 h 5 μM Del-Cl+10 μg LPS”—1.5 h simulation of the cells with 10 μg/ml LPS and 5 μM delphinidin chloride (dissolved in RPMI-1640 cell medium) • “24 h prestim. 5 μM Del-Cl; 1.5 h 5 μM Del-Cl”—24 h prestimulation of the cells with 5 μM delphinidin chloride (dissolved in RPMI-1640 cell medium) and then renewed stimulation with 5 μM delphinidin chloride (dissolved in RPMI-1640 cell medium) for 1.5 h • “24 h prestim. 5 μM Del-Cl; 1.5 h 5 μM Del-Cl+10 μg LPS”—24 h prestimulation of the cells with 5 μM delphinidin chloride (dissolved in RPMI-1640 cell medium) and then renewed stimulation with 5 μM delphinidin chloride (dissolved in RPMI-1640 cell medium) and 10 μg/ml LPS for 1.5 h
A procedure analogous to the methodology in example 5 was carried out and shown in FIGS. 2a and 2b from left to right, with the stimulation/incubation of the cells (1 ml in each case of RPMI-1640 comprising 1 million cells in the exponential growth phase) taking place at 37° C. in a well of a 24-well polystyrene cell culture dish and the specified concentrations being final concentrations:
FIG. 2a: • “1.5 h 10 μg LPS”—Stimulation of the cells for 1.5 h with 10 μg/ml LPS (control) • “1.5 h 5 μM Del-Cl+10 μg LPS”—1.5 h simulation of the cells with 10 μg/ml LPS and 5 μM delphinidin chloride (dissolved in RPMI-1640 cell medium) • “1.5 h hydrocortisone+10 μg LPS”—Stimulation of the cells for 10^−5 M hydrocortisone and 10 μg/ml LPS for 1.5 h
FIG. 2b: • “1.5 h 10 μg LPS”—Stimulation of the cells for 1.5 h with 10 μg/ml LPS (control) • “1.5 h 10 μM Del-Cl+10 μg LPS”—1.5 h simulation of the cells with 10 μg/ml LPS and 10 μM delphinidin chloride (dissolved in RPMI-1640 cell medium)
A procedure analogous to the methodology in examples 5 and 6 was carried out and shown in FIG. 3 from left to right, with the stimulation/incubation of the cells (1 ml in each case of RPMI-1640 comprising 1 million cells in the exponential growth phase) taking place at 37° C. in a well of a 24-well polystyrene cell culture dish and the specified concentrations being final concentrations: • “1.5 h 2.5 μM Del-Cl”—1.5 h stimulation of the cells with 2.5 μM delphinidin chloride (dissolved in RPMI-1640 cell medium) • “1.5 h 5 μM Del-Cl”—1.5 h simulation of the cells with 5 μM delphinidin chloride (dissolved in RPMI-1640 cell medium) • “1.5 h 10 μM Del-Cl”—1.5 h stimulation of the cells with 10 μM delphinidin chloride (dissolved in RPMI-1640 cell medium) • “1.5 h hydrocortisone”—1.5 h stimulation of the cells with […] hydrocortisone

[4] = Stability experiments in aqueous solution: 0.9% NaCl, 37° C., delphinidin content by HPLC (Example 5); type: physicochemical; settings: dark, start 1.584 mg/ml (complex) or 0.0216 mg/ml (uncomplexed)
Description: The content of delphinidin chloride in the delphinidin-containing solutions was determined by using a reverse-phase HPLC method similar to the one already described above. This used the following reagents: • Purified water • Methanol for chromatography • Formic acid, p. a. • 1 M Hydrochloric acid as volumetric solution.
The solutions were produced at room temperature and then stored in closed vials in the dark at 37° C.
After 1, 2, 3 and 4 h, the delphinidin content was determined. The table below specifies the ascertained content as a percentage of the above-stated starting concentration.

[5] = conclusion from the measured results

Oc1cc(O)c2cc(O)c(-c3cc(O)c(O)c(O)c3)[o+]c2c1.[Cl-] [delphinidin, Delphinidin chloride]
Attainable solubility, Delphinidin chloride [1]: 0.07 mg/mL | Effect on the TNFα-induced rise in Cc17 mRNA expression ([2]; then delphinidin 0.1 μM for a further 24 h, FIG. 4): distinct suppression or inhibition | Effect on the TNFα-induced rise in Cc17 mRNA expression ([2]; then delphinidin 1 μM for a further 24 h, FIG. 4): distinct suppression or inhibition | Antiphlogistic effect on the blood-brain barrier after inflammation relative to dexamethasone [2, 5]: at least equivalent | Effect on Cc17 expression without prior TNFα exposure ([2]; delphinidin alone in the cell culture medium, FIG. 4): suppression of Cc17 expression | Effect on the TNFα-mediated decrease in claudin-5 mRNA expression ([3]; then delphinidin 0.1 μM, FIG. 5): counteracted this TNFα-mediated decrease | Effect on the TNFα-mediated decrease in claudin-5 mRNA expression ([3]; then delphinidin 1 μM, FIG. 5): counteracted this TNFα-mediated decrease | Barrier of the blood-brain barrier after inflammation [3, 5]: strongly increases | Effect on claudin-5 mRNA expression without prior TNFα exposure ([3]; delphinidin alone in the cell culture medium, FIG. 5): increase in claudin-5 mRNA expression | Inhibition of the LPS-mediated immune response (NFKB in the nucleus) (NFKB; 1.5 h 5 μM Del-Cl + 10 μg/ml LPS simultaneously, FIG. 1, FIG. 2a): inhibition of the immune response; also recorded: inhibited at least just as well as by means of addition of hydrocortisone | Inhibition of the LPS-mediated immune response (NFKB in the nucleus) (NFKB; 1.5 h 10 μM Del-Cl + 10 μg/ml LPS, repeat experiment FIG. 2b): significantly reduced | Inhibition of the cell immune response with varying concentration (NFKB in the nucleus) (NFKB; 1.5 h 2.5, 5 and 10 μM Del-Cl, without LPS, FIG. 3): increase in the delphinidin-mediated inhibition of the cell immune response (dose effect) | Inhibition of the LPS-mediated immune response (NFKB in the nucleus) (NFKB; 24 h prestimulation 5 μM Del-Cl, then 1.5 h 5 μM Del-Cl + 10 μg/ml LPS, FIG. 1): further intensified (additive effect) | Inhibition of the LPS-mediated immune response (NFKB in the nucleus) (NFKB; 24 h prestimulation with 5 μM Del-Cl, then 1.5 h 10 μg/ml LPS, FIG. 1): (weakly) inhibits | Inhibitory effect on the cell immune response compared to hydrocortisone (NFKB; appropriately high delphinidin concentration, 1.5 h, comparison hydrocortisone, FIG. 3): comparable to that of hydrocortisone | Delphinidin content as a percentage of the starting concentration ([4]; 0 h): 100% | Delphinidin content as a percentage of the starting concentration ([4]; 1 h): 8.3% | Delphinidin content as a percentage of the starting concentration ([4]; 2 h): 6.5% | Delphinidin content as a percentage of the starting concentration ([4]; 3 h): 5.6% | Delphinidin content as a percentage of the starting concentration ([4]; 4 h): 5.1%

C[C@]12CCC(=O)C=C1CC[C@@H]1[C@@H]2[C@@H](O)C[C@@]2(C)[C@H]1CC[C@]2(O)C(=O)CO [hydrocortisone, reference compound]
Inhibition of the LPS-mediated immune response (NFKB in the nucleus) (NFKB; 1.5 h 10^−5 M hydrocortisone + 10 μg/ml LPS, FIG. 2a): inhibited
